Columns and labels:
[1] = system: P1 (DNA, G4) GGGCGGTGGGAGGGGGGTGGTGGG; assay: CD melting; conditions: 1:3 ratio P1-M2; Tm ~79 °C with and without M2; buffer not stated
[2] = system: P2 (DNA, G4) GGGCGGGGAGGGGGG; assay: fluorescence titration of M2 (emission shift Δλ); conditions: excitation 345 nm; buffer not stated
[3] = system: P1 (DNA, G4) GGGCGGTGGGAGGGGGGTGGTGGG; assay: absorption, fluorescence titration, WaterLOGSY NMR; conditions: buffer and highest concentration not stated
[4] = system: P2 (DNA, G4) GGGCGGGGAGGGGGG; assay: WaterLOGSY 1H NMR; conditions: 298 K; water with 10% D2O

binding [1]: no
KD [2]: 13.2 µM
binding [3]: no
binding [4]: yes
SMILES: CN(CCC#N)c1ccc(C=NCCCN=Cc2ccc(N(C)CCC#N)cc2)cc1

Reference: publication PMC5746379 (2017)
